Experimental data: US8802692B2, “Synergistic effects between sphingosine-1-phosphate receptor antagonists and antimicrotubule agents” (Exelixis, Inc., priority 2008, dated 2014)

Experiments:
Type in all cases: in vivo, Nude mice
[1] = system: human MDA-MB-231 breast cancer cells (ATCC# HTB-26); test: MDA-MB-231 breast cancer xenograft, S1P1R antagonist + vincristine; details: start 95 mgs
Protocol: In this experiment, a maximum efficacy dose of an S1P1R receptor antagonist was used with doses of vincristine (Yes Pharma, Ltd., CAS#2068-78-2, Lot#80702). Compound #2, 50, 52, or 75 were used in these experiments. Nude mice (athymic female mice, Taconic Farms, Inc., 10 animals per group) were inoculated subcutaneously with human MDA-MB-231 breast cancer cells (ATCC# HTB-26) (1×10^6 cells per animal). After tumors were allowed to grow for 19 days, two groups of animals were treated with vincristine at doses of 0.1 or 1 mg/kg q3d iv. One group of animals was treated with a specific concentration of S1P1R receptor antagonist. Two groups of animals were treated with a specific dose of S1P1R receptor antagonist and the same dose of vincristine using the same schedule used for the individual vincristine groups. Finally, a control group was treated with the vehicles used for each agent individually. Tumor dimensions were measured by calipers and then converted to weight using the formula: tumor weight (mg)=[tumor volume=length (mm)×width^2(mm^2)]/2. Animals were also monitored for weight loss as an indicator of signs of toxicity. […]
Cells were inoculated subcutaneously on day 0 and allowed to grow for 19 days. […] Dosing continued for 8 cycles (q3d) and tumors in each of the six groups were measured and averaged. […]

[2] = system: human MDA-MB-231 breast cancer cells (ATCC#HTB-26); test: MDA-MB-231 breast cancer xenograft, S1P1R antagonist + docetaxel; details: docetaxel alone 7 mg/kg q3d ip; start 96 mgs
Protocol: In this experiment, a maximum efficacy dose of an S1P1R receptor antagonist was used with an optimal dose of docetaxol (Haorui Pharma Chem, Inc; CAS#114977-28-5). Compound #2, 50, 52, or 75 were used in these experiments. Nude mice (athymic female mice, Taconic Farms, Inc., 10 animals per group) were inoculated subcutaneously with human MDA-MB-231 breast cancer cells (ATCC#HTB-26) (1×10^6 cells per animal). After tumors were allowed to grow for 17 days, one group of animals was treated with docetaxel at a dose of 7 mg/kg q3d ip. One group of animals was treated with a specific dose of S1P1R receptor antagonist and the same dose of docetaxel using the same schedule used for the individual docetaxel group. Finally, a control group was treated with the vehicles used for each agent individually. Tumor dimensions were measured by calipers and then converted to weight using the formula: tumor weight (mg)=[tumor volume=length (mm)×width^2(mm^2)]/2. Animals were also monitored for weight loss as an indicator of signs of toxicity. The S1P1R receptor antagonist was formulated in a composition containing 10% NMP (n-methyl pyrrolidone)+90% corn oil. […]
Cells were inoculated subcutaneously on day 0 and allowed to grow for 17 days. […] Dosing continued for 7 cycles (q3d) and tumors in each of the three groups were measured and averaged. […]

[3] = system: human non-small cell lung carcinoma cells (ATCC #HTB-56); test: Non-small cell lung carcinoma xenograft (Calu-6 XN model), S1P1R antagonist + paclitaxel; details: paclitaxel alone 15 mg/kg q3d ip; dosing day 9 to day 31; control about 1500 mgs
Protocol: In this experiment, a maximum efficacy dose of an S1P1R receptor antagonist was used with an optimal dose of paclitaxel (MP Biomedicals cat #193532). Nude mice (athymic female mice, Taconic Farms, Inc., 10 animals per group) were inoculated subcutaneously with human non-small cell lung carcinoma cells (ATCC #HTB-56) (1×10^6 cells per animal). After tumors were allowed to grow for 9 days, one group of animals was treated with a S1P1R receptor antagonist (100 mg/kg qd po). A second group of animals was treated with paclitaxel at a dose of 15 mg/kg q3d ip. A third group of animals was treated with a S1P1R receptor antagonist and paclitaxel using the same dose and schedule used for the individual agents. A fourth control group was treated with the vehicles used for each agent individually. Tumor dimensions were measured by calipers and then converted to weight using the formula: tumor weight (mg)=[tumor volume=length (mm)×[…]]/2. Animals were also monitored for weight loss as an indicator of signs of toxicity. […]
Cells were inoculated subcutaneously on day 0 and allowed to grow for 9 days. […] Dosing continued until day 31 and tumors from some animals in each of the four groups were measured and averaged. Some animals in the paclitaxel group and the combined treatment group were monitored after treatment stopped for a period of time. […]

[4] = system: human MDA-MB-231 cells breast cancer cells (ATCC #HTB-26); test: MDA-MB-231 breast cancer xenograft, S1P1R antagonist + paclitaxel; details: paclitaxel alone 7.5 mg/kg q3d ip; start 100 mgs
Protocol: In this experiment, 4 different doses of an S1P1R receptor antagonist, 0.3 mgs/kg, 3 mgs/kg, 10 mgs/kg or 30 mgs/kg was used with an optimal dose of paclitaxel (MP Biomedicals cat #193532). Nude mice (athymic female mice, Taconic Farms, Inc., 10 animals per group) were inoculated subcutaneously with human MDA-MB-231 cells breast cancer cells (ATCC #HTB-26) (1×10^6 cells per animal). After tumors were allowed to grow for 21 days, one group of animals was treated with paclitaxel at a dose of 7.5 mg/kg q3d ip. Four groups of animals were treated with a specific concentration of S1P1R receptor antagonist and the same concentration of paclitaxel using the same schedule used for the individual paclitaxel group. Finally, a control group was treated with the vehicles used for each agent individually. Tumor dimensions were measured by calipers and then converted to weight using the formula: tumor weight (mg)=[tumor volume=length (mm)×[…]]/2. Animals were also monitored for weight loss as an indicator of signs of toxicity. The S1P1R Receptor antagonist was formulated in a compostion containing 10% NMP (n-methyl pyrrolidone)+90% corn oil. […]
Cells were inoculated subcutaneously on day 0 and allowed to grow for 21 days. […] Dosing continued for 19 days and tumors in each of the four groups were measured and averaged. […]

CC[C@]1(O)C[C@H]2CN(CCc3c([nH]c4ccccc34)[C@@](C(=O)OC)(c3cc4c(cc3OC)N(C=O)[C@H]3[C@@](O)(C(=O)OC)[C@H](OC(C)=O)[C@]5(CC)C=CCN6CC[C@]43[C@@H]65)C2)C1 [vincristine]
average tumor weight after 8 cycles of treatment ([1]; vincristine alone 0.1 mg/kg q3d iv): 659 mg | average tumor weight after 8 cycles of treatment ([1]; vincristine alone 1 mg/kg q3d iv): 26 mg

CC(=O)O[C@@]12CO[C@@H]1C[C@H](O)[C@@]1(C)C(=O)[C@H](O)C3=C(C)[C@@H](OC(=O)[C@H](O)[C@@H](NC(=O)OC(C)(C)C)c4ccccc4)C[C@@](O)([C@@H](OC(=O)c4ccccc4)[C@H]21)C3(C)C [docetaxel]
average tumor weight after 7 cycles of treatment [2]: about 310 mgs

CC(=O)O[C@H]1C(=O)[C@@]2(C)[C@H]([C@H](OC(=O)c3ccccc3)[C@]3(O)C[C@H](OC(=O)[C@H](O)[C@@H](NC(=O)c4ccccc4)c4ccccc4)C(C)=C1C3(C)C)[C@]1(OC(C)=O)CO[C@@H]1C[C@@H]2O [paclitaxel]
average tumor weight after treatment [3]: about 550 mgs | average tumor weight after 19 days of treatment [4]: about 325 mgs
